In patent publication US20240376097A1, “BCL-2 Inhibitor” (BeiGene Ltd., priority 2020, published 2024):

Legend:
[1] = target: Recombinant human Bcl-2 protein (Homo sapiens (Human), UniProt P10415); experiment: Bcl-2 TR-FRET Assay; assay type: binding; details: Bcl-2 wild type, TR-FRET; read-out: Biochemical assay (IC50, nM) Bcl-2 WT
Outline: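 Displacement of FITC-labelled Bak peptide (0.5 nM) from 0.05 nM human Bcl-2, detected by TR-FRET with Tb-cryptate anti-6His antibody after 1 h at room temperature. Compounds, 10-point series, preincubated 0.5 h with protein in 20 mM potassium phosphate pH 7.5, 50 mM NaCl. IC50s fitted by four-parameter logistic.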

[2] = target: recombinant human Bcl-2-G101V protein (Homo sapiens (Human), UniProt P10415, G101V); experiment: Bcl-2-G101V TR-FRET Assay; assay type: binding; details: Bcl-2 G101V mutant, TR-FRET; read-out: Biochemical assay (IC50, nM) Bcl-2 G101V
Outline: (§1)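 Ex337/em490 & 520 nm TR-FRET; % inhibition of Bcl-2-G101V–ligand interaction from 490:520 ratio vs. increasing compound conc.; IC50 by 4-parameter logistic fit.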

[3] = system: recombinant human Bcl-2-G101V protein; experiment: Bcl-2-G101V TR-FRET Assay; assay type: binding; details: ratio of biochemical IC50 Bcl-2 G101V / Bcl-2 WT
Outline: as §1

[4] = system: RS4;11 (BCL-2 dependent acute lymphoblastic leukemia cell line); experiment: RS4;11 Cell Proliferation Assay; assay type: cell-based; details: Homo sapiens, RS4-11, RS4;11 cells, read-out: Cellular proliferation assay (IC50, nM) RS4
Outline: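 Viability measured via CellTiter-Glo luminescence after a 48 h, 37 °C exposure to compounds (10 points, highest 1 μM). Seeding was 50,000 RS4;11 cells per well in 10% FBS RPMI-1640; IC50 given as mean.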

[5] = system: BCL-2 G101V knock-in cell line H96 (derive from RS4;11); experiment: Bcl 2-G101V Knock-In RS4;11 Cell Proliferation Assay; assay type: cell-based; details: Homo sapiens, RS4;11 Bcl-2 G101V knock-in clone H96, 48 hrs, CellTiter-GLO, read-out: Cellular proliferation assay (IC50, nM) RS4
Outline: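 CellTiter-Glo luminescence after 48 h, 37 °C compound treatment (10 concentrations, maximum 1 μM or 10 μM) gave mean IC50 values. Cells were 50,000 per well of H96, a BCL2-G101V knock-in single clone derived from RS4;11 by Cas9 editing.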

In the case of `COc1ccc(CN2CCN(C3CC4(CCN(c5ccc(C(=O)NS(=O)(=O)c6ccc(NC[C@H]7CC[C@](C)(O)CC7)c([N+](=O)[O-])c6)c(Oc6cnc7[nH]ccc7c6)c5)CC4)C3)C(c3ccccc3C)C2)cc1` (some centres unmarked) [Example 34, 2-((1H-pyrrolo[2,3-b]pyridin-5-yl)oxy)-N-((4-((((1r,4r)-4-hydroxy-4-methylcyclohexyl)methyl)amino)-3-nitrophenyl)sulfonyl)-4-(2-(4-(4-methoxybenzyl)-2-(o-tolyl)piperazin-1-yl)-7-azaspiro[3.5]nonan-7-yl)benzamide], the IC50 [1] is reported as 0.049 nM, the IC50 [2] is reported as 1.8 nM and the “Ratio of Bcl-2 G101V/WT” value [3] is reported as 36.7. The IC50 [4] was 1.3 nM and the IC50 [5] was 13.9 nM.
For `COc1ccc(CN2CCN(C3CC4(CCN(c5ccc(C(=O)NS(=O)(=O)c6ccc(NC[C@H]7CC[C@](C)(O)CC7)c([N+](=O)[O-])c6)c(Oc6cnc7[nH]ccc7c6)c5)CC4)C3)C(c3ccccc3CN3CCOCC3)C2)cc1` (some centres unmarked) [Example 37, 2-((1H-pyrrolo[2,3-b]pyridin-5-yl)oxy)-N-((4-((((1r,4r)-4-hydroxy-4-methylcyclohexyl)methyl)amino)-3-nitrophenyl)sulfonyl)-4-(2-(4-(4-methoxybenzyl)-2-(2-(morpholinomethyl)phenyl)piperazin-1-yl)-7-azaspiro[3.5]nonan-7-yl)benzamide], the IC50 [1] was 0.42 nM, the IC50 [2] was 12 nM and the “Ratio of Bcl-2 G101V/WT” value [3] was 28.6. It also gave an IC50 [4] of 77.4 nM and an IC50 [5] of 289 nM.
For `COc1ccc(CN2CCN(C3CC4(CCN(c5ccc(C(=O)NS(=O)(=O)c6ccc(NCC7CCOCC7)c([N+](=O)[O-])c6)c(Oc6cnc7[nH]ccc7c6)c5)CC4)C3)C(c3ccccc3C)C2)cc1` (centres unmarked) [Example 38], the IC50 [1] was 0.053 nM, the IC50 [2] was 4.1 nM and the “Ratio of Bcl-2 G101V/WT” value [3] was 77.4. It also gave an IC50 [4] of 2.5 nM and an IC50 [5] of 37.5 nM.
`COc1cccc(CN2CCN(C3CC4(CCN(c5ccc(C(=O)NS(=O)(=O)c6ccc(NC[C@H]7CC[C@](C)(O)CC7)c([N+](=O)[O-])c6)c(Oc6cnc7[nH]ccc7c6)c5)CC4)C3)C(c3ccccc3C(C)C)C2)c1` (some centres unmarked) [Example 44, 2-((1H-pyrrolo[2,3-b]pyridin-5-yl)oxy)-N-((4-((((1r,4r)-4-hydroxy-4-methylcyclohexyl)methyl)amino)-3-nitrophenyl)sulfonyl)-4-(2-(2-(2-isopropylphenyl)-4-(3-methoxybenzyl)piperazin-1-yl)-7-azaspiro[3.5]nonan-7-yl) benzamide] was tested, and the IC50 [1] was 0.3 nM, the IC50 [2] was 0.84 nM and the “Ratio of Bcl-2 G101V/WT” value [3] was 2.8. The IC50 [4] was 0.5 nM and the IC50 [5] was 3.31 nM.
For `CC(C)c1ccccc1C1CN(Cc2ccc3c(c2)CCCC3)CCN1C1CC2(CCN(c3ccc(C(=O)NS(=O)(=O)c4ccc(NC[C@H]5CC[C@](C)(O)CC5)c([N+](=O)[O-])c4)c(Oc4cnc5[nH]ccc5c4)c3)CC2)C1` (some centres unmarked) [Example 54, 2-((1H-pyrrolo[2,3-b]pyridin-5-yl)oxy)-N-((4-((((1r,4r)-4-hydroxy-4-methylcyclohexyl)methyl)amino)-3-nitrophenyl)sulfonyl)-4-(2-(2-(2-isopropylphenyl)-4-((5,6,7,8-tetrahydronaphthalen-2-yl)methyl)piperazin-1-yl)-7-azaspiro[3.5]nonan-7-yl)benzamide], the IC50 [1] was 0.76 nM, the IC50 [2] was 4.7 nM and the “Ratio of Bcl-2 G101V/WT” value [3] was 6.2. It also gave an IC50 [4] of 0.79 nM and an IC50 [5] of 11.7 nM.
For `CC(C)c1ccccc1C1CN(CC2CCOc3ccccc32)CCN1C1CC2(CCN(c3ccc(C(=O)NS(=O)(=O)c4ccc(NC[C@H]5CC[C@](C)(O)CC5)c([N+](=O)[O-])c4)c(Oc4cnc5[nH]ccc5c4)c3)CC2)C1` (some centres unmarked) [Example 57, 2-((1H-pyrrolo[2,3-b]pyridin-5-yl)oxy)-4-(2-(4-(chroman-4-ylmethyl)-2-(2-isopropylphenyl)piperazin-1-yl)-7-azaspiro[3.5]nonan-7-yl)-N-((4-((((1r,4r)-4-hydroxy-4-methylcyclohexyl)methyl)amino)-3-nitrophenyl)sulfonyl)benzamide], the IC50 [1] was 0.44 nM, the IC50 [2] was 2.2 nM and the “Ratio of Bcl-2 G101V/WT” value [3] was 5.0. For the same compound, the IC50 [4] was 0.8 nM and the IC50 [5] was 8.9 nM.
In the case of `CC(C)c1ccccc1C1CN(C(=O)c2ccccc2)CCN1C1CC2(CCN(c3ccc(C(=O)NS(=O)(=O)c4ccc(NC[C@H]5CC[C@](C)(O)CC5)c([N+](=O)[O-])c4)c(Oc4cnc5[nH]ccc5c4)c3)CC2)C1` (some centres unmarked) [Example 60], the IC50 [1] is reported as 0.057 nM, the IC50 [2] is reported as 1.6 nM and the “Ratio of Bcl-2 G101V/WT” value [3] is reported as 28.1. For the same compound, the IC50 [4] was 0.35 nM and the IC50 [5] was 2.52 nM.
`CC(C)c1ccccc1C1CN(S(=O)(=O)c2ccccc2)CCN1C1CC2(CCN(c3ccc(C(=O)NS(=O)(=O)c4ccc(NC[C@H]5CC[C@](C)(O)CC5)c([N+](=O)[O-])c4)c(Oc4cnc5[nH]ccc5c4)c3)CC2)C1` (some centres unmarked) [Example 62, 2-((1H-pyrrolo[2,3-b]pyridin-5-yl)oxy)-N-((4-((((1r,4r)-4-hydroxy-4-methylcyclohexyl)methyl)amino)-3-nitrophenyl)sulfonyl)-4-(2-(2-(2-isopropylphenyl)-1-(phenylsulfonyl)piperazin-1-yl)-7-azaspiro[3.5]nonan-7-yl) benzamide] was tested, and the IC50 [1] was 0.33 nM, the IC50 [2] was 13 nM and the “Ratio of Bcl-2 G101V/WT” value [3] was 39.4. For the same compound, the IC50 [4] was 2.4 nM and the IC50 [5] was 28.4 nM.
For `CC(C)c1ccccc1C1CN(S(C)(=O)=O)CCN1C1CC2(CCN(c3ccc(C(=O)NS(=O)(=O)c4ccc(NC[C@H]5CC[C@](C)(O)CC5)c([N+](=O)[O-])c4)c(Oc4cnc5[nH]ccc5c4)c3)CC2)C1` (some centres unmarked) [Example 66, 2-((1H-pyrrolo[2,3-b]pyridin-5-yl)oxy)-N-((4-((((1r,4r)-4-hydroxy-4-methylcyclohexyl)methyl)amino)-3-nitrophenyl)sulfonyl)-4-(2-(2-(2-isopropylphenyl)-4-(methylsulfonyl)piperazin-1-yl)-7-azaspiro[3.5]nonan-7-yl) benzamide], the IC50 [1] was 0.034 nM, the IC50 [2] was 1.6 nM and the “Ratio of Bcl-2 G101V/WT” value [3] was 47.1. It also gave an IC50 [4] of 0.6 nM and an IC50 [5] of 6.61 nM.
For `CCc1ccccc1C1CN(Cc2ccc(OC)cc2)CCN1C1CC2(CCN(c3ccc(C(=O)NS(=O)(=O)c4ccc(NC[C@H]5CC[C@](C)(O)CC5)c([N+](=O)[O-])c4)c(Oc4cnc5[nH]ccc5c4)c3)CC2)C1` (some centres unmarked) [Example 76, 2-((1H-pyrrolo[2,3-b]pyridin-5-yl)oxy)-4-(2-(2-(2-ethylphenyl)-4-(4-methoxybenzyl)piperazin-1-yl)-7-azaspiro[3.5]nonan-7-yl)-N-((4-((((1r,4r)-4-hydroxy-4-methylcyclohexyl)methyl)amino)-3-nitrophenyl)sulfonyl)benzamide], the IC50 [1] was 0.074 nM, the IC50 [2] was 1.3 nM and the “Ratio of Bcl-2 G101V/WT” value [3] was 17. It also gave an IC50 [4] of 0.69 nM and an IC50 [5] of 6.5 nM.
`COc1ccc(CN2CCN(C3CC4(CCN(c5ccc(C(=O)NS(=O)(=O)c6ccc(NC[C@H]7CC[C@](C)(O)CC7)c([N+](=O)[O-])c6)c(Oc6cnc7[nH]ccc7c6)c5)CC4)C3)[C@@H](c3ccccc3C(C)C)C2)cc1OC` [Example 81b] was tested, and the IC50 [1] was 0.074 nM, the IC50 [2] was 2 nM and the “Ratio of Bcl-2 G101V/WT” value [3] was 27. It also gave an IC50 [4] of 2.85 nM and an IC50 [5] of 11.6 nM.
For `COc1ccc(CN(C)C2CCN(C3CC4(CCN(c5ccc(C(=O)NS(=O)(=O)c6ccc(NC[C@H]7CC[C@](C)(O)CC7)c([N+](=O)[O-])c6)c(Oc6cnc7[nH]ccc7c6)c5)CC4)C3)C(c3ccccc3C3CC3)C2)cc1` (some centres unmarked) [Example 105, 2-((1H-pyrrolo[2,3-b]pyridin-5-yl)oxy)-4-(2-(2-(2-cyclopropylphenyl)-4-((4-methoxybenzyl)(methyl)amino)piperidin-1-yl)-7-azaspiro[3.5]nonan-7-yl)-N-((4-((((1r,4r)-4-hydroxy-4-methylcyclohexyl)methyl)amino)-3-nitrophenyl)sulfonyl)benzamide], the IC50 [1] was 0.1 nM, the IC50 [2] was 0.25 nM and the “Ratio of Bcl-2 G101V/WT” value [3] was 2.5. For the same compound, the IC50 [4] was 2.12 nM and the IC50 [5] was 16.6 nM.
In the case of `CCc1cc(CN2CCN(C3CC4(CCN(c5ccc(C(=O)NS(=O)(=O)c6ccc(NC[C@H]7CC[C@](C)(O)CC7)c([N+](=O)[O-])c6)c(Oc6cnc7[nH]ccc7c6)c5)CC4)C3)C(c3ccccc3C(C)C)C2)ccc1OC` (some centres unmarked) [Example 116, 2-((1H-pyrrolo[2,3-b]pyridin-5-yl)oxy)-4-(2-(4-(3-ethyl-4-methoxybenzyl)-2-(2-isopropylphenyl)piperazin-1-yl)-7-azaspiro[3.5]nonan-7-yl)-N-((4-((((1r,4r)-4-hydroxy-4-methylcyclohexyl)methyl)amino)-3-nitrophenyl)sulfonyl)benzamide], the IC50 [1] is reported as 0.42 nM, the IC50 [2] is reported as 2 nM and the “Ratio of Bcl-2 G101V/WT” value [3] is reported as 4.7. It also gave an IC50 [4] of 0.58 nM and an IC50 [5] of 4.76 nM.
